Results on 24 molecules are retold here after PubChem BioAssay (NCI).

Values joined by “and” are separate entries in the source; they are usually repeats but may differ in a detail not shown here. Identical values can stand only once.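 48-hour exposure; five concentrations; linearly interpolated endpoints. GI50 is the concentration that inhibits growth by half. TGI denotes the concentration required for complete inhibition of growth.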 Some results are limits rather than exact numbers.

Assay in all cases: NCI anticancer screen, dose series, 48 h
Test [1] concerns CCRF-CEM leukemia.
The test system of test [2] is HCT-15 colon.
Test [3] relates to NCI/ADR-RES ovarian.
Test [4] deals with KM12 colon.
In test [5] the test system is NCI-H460 lung.
The test system of test [6] is HCT-116 colon.
Test [7] concerns LOX IMVI melanoma.
In test [8] the test system is A498 renal.

As to `C/C(=N\NC(=O)c1sc(=S)n(C)c1N)c1cc2ccccc2o1`, the GI50 in test [1] is 10.6 µM; in test [2], 10.6 µM; in test [3], 11 µM; in test [4], 9.12 µM; in test [5] it was 5.89 µM; in test [6], 16.2 µM. Also, the GI50 in test [7] is 7.05 µM; in test [8] it was 4.58 µM. Also, the TGI stood at 31 µM in test [1]; 24.9 µM in test [2]; 26 µM in test [3]; 25.8 µM in test [4]; 24.1 µM in test [5]; 32 µM in test [6]. Besides, the figures for the TGI in test [7] and in test [8] were 20.1 µM and 18.9 µM, respectively.

Consider `COc1ccc(OC)c(/C=N/NC(=O)Cc2csc3nc(-c4ccc(Br)cc4)cn23)c1`, for which the GI50 was 9.59 µM in test [1]; 7.42 µM in test [2]; 12.8 µM in test [3]; 8.84 µM in test [4]; greater than 100 µM in test [5]; 4.57 µM in test [6]. In addition, the GI50 in test [7] is 12.6 µM. Further, the TGI was greater than 100 µM in test [1]; 65.1 µM in test [2]; 35.4 µM in test [3]; greater than 100 µM in test [4]; greater than 100 µM in test [5]; 15.9 µM in test [6]. The molecule also came in with a TGI in test [7] of 47.4 µM.

`Cc1ccc(S(=O)(=O)N2CCCN(S(=O)(=O)c3ccc(C)cc3)CCN(S(=O)(=O)c3ccc(C)cc3)CCCSCC2)cc1`: the TGI in test [1], in test [3], in test [5], in test [6] and in test [8] was greater than 100 µM throughout.

In the case of `FC(F)(F)c1nc(N2CCCC2)ncc1-c1nnnn1-c1ccc(Cl)cc1`, the GI50 is 6.71 µM in test [1]; 28.5 µM in test [2]; 23 µM in test [3]; 15 µM in test [4]; 11.7 µM in test [5]; 23 µM in test [6]. Also, the GI50 is 15.4 µM in test [7] and 18.3 µM in test [8]. In addition, the TGI in test [1] is 45.4 µM; in test [2], greater than 100 µM; in test [3] it was 62.2 µM; in test [4], 48 µM; in test [5] it was 90.2 µM; in test [6], 54.6 µM. The TGI in test [7] worked out at 49.5 µM; in test [8] it was 62.7 µM.

With `O=C(Nc1ccc(Cl)c(Cl)c1)c1cccc(NC2=C(Cl)C(=O)N(Cc3ccccc3)C2=O)c1`, the GI50 in test [1] is 23.4 µM; in test [2], 36.6 µM; in test [3], 24.4 µM; in test [4] it was 69 µM; in test [5], 30.3 µM; in test [6], 27.8 µM. The GI50 is 27 µM in test [7] and 23.8 µM in test [8]. The TGI in test [1] is greater than 100 µM; in test [2] it was greater than 100 µM; in test [3], 88.9 µM; in test [4], greater than 100 µM; in test [5] it was greater than 100 µM; in test [6] it was greater than 100 µM. The TGI in test [7] and in test [8] was greater than 100 µM throughout.

Regarding `CC1(C)CC(=O)C(CCC(=O)/C=C/c2ccccc2)C(=O)C1`, the TGI in test [1], in test [2], in test [3], in test [4], in test [5] and in test [6] was greater than 100 µM throughout. In addition, the TGI in test [7] and in test [8] was greater than 100 µM in each case.

For the molecule `COc1ccc2[nH]c(=O)c3c4ccccc4cn3c2c1`, the GI50 in test [1] is 0.322 µM; in test [2], 0.31 µM; in test [3], 0.308 µM; in test [4] it was 0.323 µM; in test [5], 0.19 µM; in test [6], 0.351 µM. Besides, the GI50 was 0.776 µM in test [7] and 0.383 µM in test [8]. Further, the TGI in test [1] came out at 1.48 µM; in test [2], 1.4 µM; in test [3] it was 1.29 µM; in test [4] it was 1.65 µM; in test [5] it was 1.31 µM; in test [6], 1.38 µM. The figures for the TGI in test [7] and in test [8] were 2.11 µM and 4.83 µM, respectively.

For `Cc1cc2nc(C(C)C(=O)c3ccc(Cl)cc3)c(=O)[nH]c2cc1C` (configuration not stated), the TGI in test [1], in test [2], in test [3], in test [4], in test [5] and in test [6] was greater than 100 µM each time. Also, the TGI in test [7] and in test [8] was greater than 100 µM each time.

On to `COc1cc(C2c3[nH]c4ccccc4c3C[C@H]3COC(=O)N23)cc(OC)c1OC` (some centres not stated), for which the TGI in test [1] was 0.0789 µM; in test [2] it was 6.72 µM and 1.39 µM; in test [3], 0.265 µM and 0.0902 µM; in test [4], 1.68 µM. In addition, the GI50 in test [2] is less than 0.01 µM; in test [3], 0.0586 µM and < 0.01 µM; in test [5], less than 0.01 µM; in test [7] it was less than 0.01 µM; in test [8] it was less than 0.01 µM.

As for `CCc1nc(N)nc(N)c1-c1ccc(NCCN)c([N+](=O)[O-])c1`, the TGI in test [1] was greater than 72.4 µM; in test [2], greater than 100 µM; in test [3], greater than 100 µM; in test [4], greater than 100 µM; in test [5], greater than 100 µM; in test [6], greater than 100 µM. Moreover, the TGI in test [7] is greater than 100 µM; in test [8], greater than 86.1 µM.

Turning to `CC[C@]12CCCN3CCc4c(n(c5ccccc45)C(=O)C1)[C@@H]32`, the TGI in test [1] was 33.1 µM; in test [2], greater than 100 µM; in test [3] it was greater than 34.5 µM; in test [4], greater than 100 µM; in test [5], greater than 100 µM; in test [6], greater than 49.6 µM. The TGI in test [7] is greater than 100 µM; in test [8] it was greater than 65.9 µM.

As for `COc1cc(C(=O)/C=C/c2c(C)n([O-])c3ccc(C)cc3[n+]2=O)cc(OC)c1OC`, the GI50 in test [1] was 2.83 µM; in test [2], 1.8 µM; in test [3], 8.47 µM; in test [4], 13 µM; in test [5] it was 14.7 µM; in test [6], 1.54 µM. In addition, the GI50 in test [7] was 2.11 µM; in test [8], 14.5 µM. In addition, the TGI is greater than 100 µM in test [1]; 4.48 µM in test [2]; greater than 70.6 µM in test [3]; 27.6 µM in test [4]; 36.9 µM in test [5]; 2.95 µM in test [6]. Besides, the TGI was 5.91 µM in test [7] and 38.6 µM in test [8].

Take `CCCCC[C@H](O)/C=C/[C@@H]1[C@@H](C/C=C\CCCC(=O)O)[C@@H](O)C[C@H]1O`: the GI50 in test [1], in test [2], in test [3], in test [4], in test [5] and in test [6] was greater than 100 µM throughout. For the same molecule, the GI50 in test [7] and in test [8] was greater than 100 µM each time. Besides, the TGI in test [1], in test [2], in test [3], in test [4], in test [5] and in test [6] was greater than 100 µM throughout. In addition, the TGI in test [7] and in test [8] was greater than 100 µM each time.

With `Cc1c(N2CCCC2)cc2c(c1NC(=O)c1ccccc1Cl)C(C)(C)CC2(C)C`, the TGI in test [2] is 28.3 µM; in test [3], 29.5 µM; in test [4] it was 30.3 µM; in test [5], 26 µM; in test [6] it was 22.8 µM; in test [7] it was 27.4 µM. Further, in test [8], the TGI was determined as 29.1 µM.

On to `OC(c1cccc(-n2ccc(C(F)(F)F)n2)c1)c1cnccc1NC1CCCCCC1` (configuration not stated), for which the GI50 is 2.35 µM in test [1]; 1.6 µM in test [2]; 1.81 µM in test [3]; 1.87 µM in test [4]; 1.84 µM in test [5]; 1.79 µM in test [6]. In test [7], the GI50 is 1.69 µM. Further, the TGI in test [1] worked out at 6.04 µM; in test [2], 3.1 µM; in test [3] it was 3.35 µM; in test [4], 3.54 µM; in test [5] it was 3.42 µM; in test [6] it was 3.59 µM. The molecule also yielded a TGI in test [7] of 3.12 µM.

Turning to `O=C1c2ccccc2-c2c1c1ccccc1c(=O)n2CCCCNCCCn1c2c(c3ccccc3c1=O)C(=O)c1ccccc1-2`, the GI50 in test [2] is 0.143 µM; in test [3], 0.582 µM; in test [4], 0.31 µM; in test [5] it was 0.0484 µM; in test [6] it was 0.00948 µM; in test [7] it was 0.0499 µM. Moreover, in test [8], the GI50 is 1.49 µM. Also, the TGI in test [2] was found to be 0.624 µM; in test [3], 1.72 µM; in test [4] it was 2.45 µM; in test [5], 0.687 µM; in test [6], 0.688 µM; in test [7], 0.76 µM. In addition, the TGI in test [8] is 5.64 µM.

As to `COc1ccccc1NC(=O)c1sc2nc3c(cc2c1N)C(=O)CCC3`, the GI50 in test [1] is greater than 100 µM; in test [3] it was 7.14 µM; in test [5] it was 3.06 µM; in test [6] it was 6.29 µM; in test [7], greater than 100 µM; in test [8], 1.84 µM. Moreover, the TGI in test [1], in test [3], in test [5], in test [6], in test [7] and in test [8] was greater than 100 µM throughout.

For `Cc1nc(-c2cccc(Nc3nc(-c4ccc(Cl)cc4)cs3)c2)cs1`, the GI50 in test [2] is 7.83 µM; in test [3], 5.14 µM; in test [4], 8.4 µM; in test [5], 12.4 µM; in test [6], 11.6 µM; in test [7], 7.3 µM. In addition, the GI50 in test [8] is 12.3 µM. In addition, the TGI turned out to be 18.6 µM in test [2]; 12.2 µM in test [3]; 20 µM in test [4]; 31.6 µM in test [5]; 27.5 µM in test [6]; 13.9 µM in test [7]. In addition, the TGI in test [8] turned out to be 20.9 µM.

Consider `Clc1ncnc(Cl)c1Cl`, for which the TGI in test [1], in test [2], in test [3], in test [4], in test [5] and in test [6] was greater than 100 µM throughout. In addition, in test [7], the TGI was greater than 100 µM.

On to `O=C(O)C/C(=C\c1ccco1)C(=O)O`, for which the TGI in test [2], in test [3], in test [4], in test [6], in test [7] and in test [8] was greater than 100 µM throughout.

Turning to `Cc1ccc(S(=O)(=O)OC2CCN(C)CC2)cc1`, the TGI in test [2], in test [3], in test [5], in test [6] and in test [7] was greater than 100 µM in each case.

As for `COc1cc2c3c(n(CCCN)c(=O)c2cc1OC)-c1ccccc1C3=O`, the GI50 was 1 µM in test [2]; 2.28 µM in test [3]; 0.517 µM in test [4]; 0.176 µM in test [5]; 0.0101 µM in test [6]; 0.125 µM in test [7]. Also, in test [8], the GI50 is 1.9 µM. The TGI in test [3] is 9.75 µM; in test [4], 2.5 µM; in test [6], 0.172 µM; in test [7] it was 1.02 µM; in test [8], 9.51 µM.

Regarding `COc1cccc(C2c3cc4c(cc3OC(C)(N3CCCC3)C2C)OCO4)c1OC` (configuration not stated), the TGI in test [1] came to 35.7 µM; in test [2] it was 30.7 µM; in test [3], 76.8 µM; in test [4], 23 µM; in test [5] it was 28.4 µM; in test [6] it was 17.7 µM. This molecule gave a TGI in test [7] of 27 µM.

For the molecule `N=C(N)c1ccc(OCc2cccc(COc3ccc(C(=N)N)cc3)c2)cc1`, the GI50 in test [2] is 17.8 µM; in test [3], greater than 100 µM; in test [5] it was 4.27 µM; in test [6], 5.22 µM. For the same molecule, the TGI in test [2] is greater than 100 µM; in test [3] it was greater than 100 µM; in test [5] it was 20 µM; in test [6], 16.9 µM.
